Measurements from patent US10966426B2, “Herbicidal compositions comprising phenylpyrimidines” (BASF SE, priority 2016, dated 2021).
Values joined by “and” are separate entries in the source; they are usually repeats but may differ in a detail not shown here. Equal entries are not always repeated.

Experiments:
Type in all cases: in vivo
[1] = tested on: Ambrosia elatior; test: greenhouse post-emergence treatment, AMBEL; settings: 20 DAT, AMBEL
How it was run: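 Greenhouse; post-emergence spray at 3–15 cm; aqueous EC formulation; 2–4 weeks; 0–100 visual score.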

[2] = tested on: Digitaria sanguinalis; test: greenhouse post-emergence treatment, DIGSA; settings: DIGSA
How it was run: (§1)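 Scoring ran on a 0-100 scale, 100 meaning no emergence or destroyed above-ground parts, over a 2-4 week period; Colby formula E=X+Y−(X·Y/100) gave expected mixture effects. Species grew separately in loamy sand (about 3.0% humus) at 10-25° C or 20-35° C, with water as solvent.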

[3] = tested on: Matricaria chamomilla; test: greenhouse post-emergence treatment, MATCH; settings: MATCH
How it was run: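 Visual herbicidal effect (0–100) recorded over a 2 to 4 week test period after foliar treatment at plant heights of 3 to 15 cm. Expected combination effects derived by the Colby formula from single-component effects X and Y.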

[4] = tested on: Avena fatua; test: greenhouse post-emergence treatment, AVEFA; settings: AVEFA
How it was run: as §1

[5] = tested on: Setaria viridis; test: greenhouse post-emergence treatment, SETVI; settings: SETVI
How it was run: as §1

[6] = Ex. 5 solo, 62.5 gai/ha, 21 DAT
[7] = Table X8, 20 DAT, solo Ex. 5 250 gai/ha
[8] = Ex. 5 solo, 62.5 gai/ha, 20 DAT

O=C(O)c1nc(C2CC2)ncc1-c1ccccc1Cl [Ex. 5]
% activity, solo application ([1]; 125 gai/ha, Table X5): 80%
% activity ([1]; solo Ex. 5 62.5 gai/ha): 80%
% activity ([1]; solo Ex. 5 125 gai/ha): 80%
% activity ([1]; solo, 62.5 gai/ha): 85%
% activity, solo application ([2]; 62.5 gai/ha, 20 DAT, Table X3): 30%
% activity, solo application ([2]; 125 gai/ha, 20 DAT, Table X4): 50%
% activity, solo application ([2]; 125 gai/ha, 20 DAT, Table X5): 65%
% activity, solo application ([2]; 250 gai/ha, 20 DAT, Table X4): 70%
% activity, solo application ([2]; 250 gai/ha, 20 DAT, Table X5): 70%
% activity ([2]; 21 DAT, solo Ex. 5 125 gai/ha): 60%
% activity ([2]; 21 DAT, solo Ex. 5 250 gai/ha): 80%
% activity ([2]; solo Ex. 5 62.5 gai/ha, 20 DAT): 35%
% activity ([2]; solo Ex. 5 125 gai/ha, 21 DAT): 45%
% activity ([2]; solo Ex. 5 250 gai/ha, 21 DAT): 65%
% activity ([2]; solo Ex. 5 500 gai/ha, 20 DAT, 2nd series of rows): 75%
% activity [2, 6]: 35%
% activity [2, 7]: 65%
% activity ([2]; solo, 62.5 gai/ha, 20 DAT): 35%
% activity ([2]; solo, 125 gai/ha, 20 DAT): 50%
% activity, solo application ([3]; 62.5 gai/ha, 20 DAT, Table X3): 30%
% activity, solo application ([3]; 125 gai/ha, 20 DAT, Table X3): 30%
% activity, solo application ([3]; 125 gai/ha, 20 DAT, Table X4): 40%
% activity, solo application ([3]; 125 gai/ha, 20 DAT, Table X5): 10%
% activity, solo application ([3]; 125 gai/ha, 20 DAT, Table X7): 30%
% activity, solo application ([3]; 250 gai/ha, 20 DAT, Table X3): 70%
% activity, solo application ([3]; 250 gai/ha, 20 DAT, Table X4): 40%
% activity, solo application ([3]; 250 gai/ha, 20 DAT, Table X5): 10%
% activity [3, 8]: 40%
% activity [3, 6]: 30%
% activity ([3]; Ex. 5 solo, 125 gai/ha, 21 DAT): 30%
% activity ([3]; Ex. 5 solo, 250 gai/ha, 21 DAT): 60%
% activity ([3]; 20 DAT, solo Ex. 5 125 gai/ha): 40%
% activity ([3]; 20 DAT, solo Ex. 5 250 gai/ha): 30%
% activity ([3]; 20 DAT, solo Ex. 5 250 gai/ha (Table X66)): 30%
% activity ([3]; 21 DAT, solo Ex. 5 125 gai/ha): 30%
% activity ([3]; solo Ex. 5 62.5 gai/ha, 20 DAT): 10% and 0%
% activity ([3]; solo Ex. 5 250 gai/ha, 21 DAT): 30%
% activity ([3]; solo, 62.5 gai/ha, 20 DAT): 20%
% activity ([3]; solo, 125 gai/ha, 20 DAT): 40% and 20%
% activity ([3]; solo, 250 gai/ha, 20 DAT): 40% and 45%
% activity, solo application ([4]; 125 gai/ha, 20 DAT, Table X4): 75%
% activity, solo application ([4]; 125 gai/ha, 20 DAT, Table X5): 70%
% activity, solo application ([4]; 250 gai/ha, 20 DAT, Table X5): 75%
% activity ([4]; 20 DAT, solo Ex. 5 125 gai/ha): 85%
% activity ([4]; 20 DAT, solo Ex. 5 250 gai/ha): 85%
% activity ([4]; solo Ex. 5 62.5 gai/ha, 20 DAT): 68%
% activity ([4]; solo Ex. 5 62.5 gai/ha, 20 DAT, 2nd series of rows): 75%
% activity ([4]; solo Ex. 5 125 gai/ha, 20 DAT): 70%
% activity ([4]; solo Ex. 5 250 gai/ha, 20 DAT): 75% and 70%
% activity ([4]; solo Ex. 5 500 gai/ha, 20 DAT): 75%
% activity [4, 6]: 80%
% activity ([4]; Ex. 5 solo, 125 gai/ha, 21 DAT): 80%
% activity ([4]; Ex. 5 solo, 250 gai/ha, 21 DAT): 85%
% activity ([4]; Table X12, 20 DAT, solo Ex. 5 31.25 gai/ha): 70%
% activity ([4]; Table X12, 20 DAT, solo Ex. 5 62.5 gai/ha): 75% and 80%
% activity ([4]; Table X12, 20 DAT, solo Ex. 5 125 gai/ha): 85%
% activity ([4]; Table X12, 20 DAT, solo Ex. 5 250 gai/ha): 90%
% activity ([4]; solo, 62.5 gai/ha, 20 DAT): 70% and 55%
% activity ([4]; solo, 125 gai/ha, 20 DAT): 75% and 80% and 60%
% activity ([4]; solo, 250 gai/ha, 20 DAT): 80%
% activity, solo application ([5]; 62.5 gai/ha, 20 DAT, Table X3): 35%
% activity, solo application ([5]; 250 gai/ha, 20 DAT, Table X3): 60%
% activity, solo application ([5]; 250 gai/ha, 20 DAT, Table X4): 50%
% activity, solo application ([5]; 250 gai/ha, 20 DAT, Table X7): 60%
% activity [5, 8]: 55%
% activity ([5]; 20 DAT, solo Ex. 5 62.5 gai/ha): 30%
% activity ([5]; 20 DAT, solo Ex. 5 125 gai/ha): 40%
% activity ([5]; 21 DAT, solo Ex. 5 125 gai/ha): 70%
% activity ([5]; solo Ex. 5 62.5 gai/ha, 20 DAT): 35% and 30% and 48%
% activity ([5]; solo Ex. 5 62.5 gai/ha, 21 DAT): 35%
% activity ([5]; solo Ex. 5 250 gai/ha, 20 DAT): 65%
% activity ([5]; Table X8, 20 DAT, solo Ex. 5 125 gai/ha): 30%
% activity [5, 7]: 30%
% activity ([5]; solo, 62.5 gai/ha, 20 DAT): 20% and 35%
% activity ([5]; solo, 125 gai/ha, 20 DAT): 40%
% activity ([5]; solo, 250 gai/ha, 20 DAT): 50%
